What was measured:
Experiment in all cases: radiometric filter-binding kinase assay
CaMK1 (human) = CaMK1 (human) (UniProt Q14012)
BRSK2 (human) = BRSK2 (human) (UniProt Q8IWQ3)
DYRK1A (human) = DYRK1A (human) (UniProt Q13627)
STK3 (human) = STK3 (human) (UniProt Q13188)
MAPK11 (human) = MAPK11 (human) (UniProt Q15759)
MKNK1 (human) = MKNK1 (human) (UniProt Q9BUB5)
LCK (mouse) = conditions: accession and sequence are those of the human protein
TAOK1 (human) = TAOK1 (human) (UniProt Q7L7X3)
DAPK1 (human) = DAPK1 (human) (UniProt P53355)
PHKG1 (human) = PHKG1 (human) (UniProt Q16816)
MAPK10 (human) = MAPK10 (human) (UniProt P53779)
YES1 (human) = YES1 (human) (UniProt P07947)
MAPK13 (human) = MAPK13 (human) (UniProt O15264)
EPHB2 (human) = EPHB2 (human) (UniProt P29323)
MARK3 (human) = MARK3 (human) (UniProt P27448)
TBK1 (human) = TBK1 (human) (UniProt Q9UHD2)
GCK (human) = GCK (human) (UniProt Q12851)
AURKB (human) = AURKB (human) (UniProt Q96GD4)
ROCK2 (rat) = conditions: accession and sequence are those of the human protein
IGF1R (human) = IGF1R (human) (UniProt P08069)
SRPK1 (human) = SRPK1 (human) (UniProt Q96SB4)
PIM3 (human) = PIM3 (human) (UniProt Q86V86)
HIPK2 (human) = HIPK2 (human) (UniProt Q9H2X6)
FGFR1 (human) = FGFR1 (human) (UniProt P11362)
MAPK8 (human) = MAPK8 (human) (UniProt P45983)
CLK2 (human) = CLK2 (human) (UniProt P49760)
MINK1 (human) = MINK1 (human) (UniProt Q8N4C8)
[1] = test system: PAK2 (human), Q13177 [T402E]
CSNK2A1 (human) = CSNK2A1 (human) (UniProt P68400)
[2] = test system: SGK1 (human), O00141 [S422D]
CHEK1 (human) = CHEK1 (human) (UniProt O14757)
JAK2 JH1 JH2 (human) = JAK2 JH1 JH2 (human) (UniProt O60674)
HIPK1 (human) = HIPK1 (human) (UniProt Q86Z02)
DYRK3 (human) = DYRK3 (human) (UniProt O43781)
MAPKAPK5 (human) = MAPKAPK5 (human) (UniProt Q8IW41)
CAMKK2 (human) = CAMKK2 (human) (UniProt Q96RR4)

Sequence of MAPK8 (human) (P45983 whole entry, looked up): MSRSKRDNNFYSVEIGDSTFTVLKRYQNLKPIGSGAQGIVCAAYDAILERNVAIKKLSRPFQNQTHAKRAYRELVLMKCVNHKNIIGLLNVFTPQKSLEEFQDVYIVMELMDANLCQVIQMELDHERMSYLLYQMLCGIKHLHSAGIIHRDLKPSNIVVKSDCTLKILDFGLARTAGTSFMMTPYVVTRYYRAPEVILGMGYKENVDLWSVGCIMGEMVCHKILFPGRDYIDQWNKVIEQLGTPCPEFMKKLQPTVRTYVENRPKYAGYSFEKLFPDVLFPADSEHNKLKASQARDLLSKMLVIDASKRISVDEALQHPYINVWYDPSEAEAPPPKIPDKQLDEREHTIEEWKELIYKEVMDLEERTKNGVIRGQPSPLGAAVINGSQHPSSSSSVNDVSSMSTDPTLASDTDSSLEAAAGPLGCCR
Sequence of TAOK1 (human) (Q7L7X3 whole entry, looked up): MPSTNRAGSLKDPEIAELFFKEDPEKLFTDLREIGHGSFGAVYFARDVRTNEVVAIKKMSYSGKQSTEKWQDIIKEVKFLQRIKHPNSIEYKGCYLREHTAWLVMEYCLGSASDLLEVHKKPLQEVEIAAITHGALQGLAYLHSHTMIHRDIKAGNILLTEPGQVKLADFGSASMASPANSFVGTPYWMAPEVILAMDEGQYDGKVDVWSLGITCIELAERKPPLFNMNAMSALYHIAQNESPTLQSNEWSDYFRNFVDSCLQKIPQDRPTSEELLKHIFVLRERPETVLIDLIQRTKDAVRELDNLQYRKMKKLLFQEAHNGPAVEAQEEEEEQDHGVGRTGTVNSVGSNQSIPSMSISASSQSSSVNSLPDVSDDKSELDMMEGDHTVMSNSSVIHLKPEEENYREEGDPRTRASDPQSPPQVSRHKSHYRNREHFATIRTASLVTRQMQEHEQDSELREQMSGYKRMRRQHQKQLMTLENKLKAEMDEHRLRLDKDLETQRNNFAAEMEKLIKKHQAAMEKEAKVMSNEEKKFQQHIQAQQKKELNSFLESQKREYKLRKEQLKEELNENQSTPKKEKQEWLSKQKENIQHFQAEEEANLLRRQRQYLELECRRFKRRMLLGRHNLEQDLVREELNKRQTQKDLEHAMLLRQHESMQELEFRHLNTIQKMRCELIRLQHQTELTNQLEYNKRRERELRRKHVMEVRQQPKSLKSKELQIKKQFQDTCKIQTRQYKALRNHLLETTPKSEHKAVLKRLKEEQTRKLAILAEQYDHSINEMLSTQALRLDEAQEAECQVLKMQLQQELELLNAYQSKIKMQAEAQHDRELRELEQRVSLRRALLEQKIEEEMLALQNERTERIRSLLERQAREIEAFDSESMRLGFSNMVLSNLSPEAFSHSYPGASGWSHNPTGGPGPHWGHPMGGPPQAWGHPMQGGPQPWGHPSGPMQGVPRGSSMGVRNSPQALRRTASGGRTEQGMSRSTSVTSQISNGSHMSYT
Sequence of YES1 (human) (P07947 whole entry, looked up): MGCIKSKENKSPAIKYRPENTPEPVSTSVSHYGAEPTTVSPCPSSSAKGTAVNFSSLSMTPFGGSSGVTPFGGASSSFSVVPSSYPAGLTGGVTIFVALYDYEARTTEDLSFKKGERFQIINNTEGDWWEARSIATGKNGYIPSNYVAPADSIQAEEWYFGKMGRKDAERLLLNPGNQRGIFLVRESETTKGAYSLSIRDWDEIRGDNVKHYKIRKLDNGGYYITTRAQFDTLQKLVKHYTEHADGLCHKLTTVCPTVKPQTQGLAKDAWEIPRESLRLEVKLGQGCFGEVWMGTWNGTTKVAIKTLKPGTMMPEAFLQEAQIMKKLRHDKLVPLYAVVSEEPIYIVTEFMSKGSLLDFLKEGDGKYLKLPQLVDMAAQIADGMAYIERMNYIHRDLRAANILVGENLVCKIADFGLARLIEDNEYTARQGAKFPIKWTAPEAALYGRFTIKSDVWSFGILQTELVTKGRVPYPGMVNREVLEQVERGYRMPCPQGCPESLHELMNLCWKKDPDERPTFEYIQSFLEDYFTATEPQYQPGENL
Sequence of SGK1 (human), O00141 [S422D] (O00141 whole entry S422D, looked up): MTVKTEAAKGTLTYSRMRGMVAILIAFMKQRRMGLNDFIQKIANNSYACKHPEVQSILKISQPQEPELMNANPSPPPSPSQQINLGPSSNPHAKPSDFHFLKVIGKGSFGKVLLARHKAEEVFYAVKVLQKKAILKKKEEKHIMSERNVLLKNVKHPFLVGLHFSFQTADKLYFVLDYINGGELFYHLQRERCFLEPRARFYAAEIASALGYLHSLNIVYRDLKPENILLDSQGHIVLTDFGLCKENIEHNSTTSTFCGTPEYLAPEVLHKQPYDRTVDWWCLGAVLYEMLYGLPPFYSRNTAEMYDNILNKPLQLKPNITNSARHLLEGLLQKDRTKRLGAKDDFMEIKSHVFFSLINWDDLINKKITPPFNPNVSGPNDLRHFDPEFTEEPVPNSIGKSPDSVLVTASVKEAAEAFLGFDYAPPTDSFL
Sequence of CSNK2A1 (human) (P68400 whole entry, looked up): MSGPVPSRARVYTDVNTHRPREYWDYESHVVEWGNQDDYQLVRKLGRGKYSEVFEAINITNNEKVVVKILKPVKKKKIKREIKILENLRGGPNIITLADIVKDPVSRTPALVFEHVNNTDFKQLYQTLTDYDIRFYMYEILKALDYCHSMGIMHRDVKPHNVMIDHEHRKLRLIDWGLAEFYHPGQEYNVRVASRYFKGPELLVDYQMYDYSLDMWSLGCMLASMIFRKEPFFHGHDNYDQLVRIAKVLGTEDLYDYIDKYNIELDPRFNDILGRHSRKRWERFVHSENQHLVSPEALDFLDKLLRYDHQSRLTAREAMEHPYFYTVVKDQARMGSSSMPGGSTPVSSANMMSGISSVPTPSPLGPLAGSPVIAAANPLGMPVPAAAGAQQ
Sequence of JAK2 JH1 JH2 (human) (O60674 whole entry, looked up): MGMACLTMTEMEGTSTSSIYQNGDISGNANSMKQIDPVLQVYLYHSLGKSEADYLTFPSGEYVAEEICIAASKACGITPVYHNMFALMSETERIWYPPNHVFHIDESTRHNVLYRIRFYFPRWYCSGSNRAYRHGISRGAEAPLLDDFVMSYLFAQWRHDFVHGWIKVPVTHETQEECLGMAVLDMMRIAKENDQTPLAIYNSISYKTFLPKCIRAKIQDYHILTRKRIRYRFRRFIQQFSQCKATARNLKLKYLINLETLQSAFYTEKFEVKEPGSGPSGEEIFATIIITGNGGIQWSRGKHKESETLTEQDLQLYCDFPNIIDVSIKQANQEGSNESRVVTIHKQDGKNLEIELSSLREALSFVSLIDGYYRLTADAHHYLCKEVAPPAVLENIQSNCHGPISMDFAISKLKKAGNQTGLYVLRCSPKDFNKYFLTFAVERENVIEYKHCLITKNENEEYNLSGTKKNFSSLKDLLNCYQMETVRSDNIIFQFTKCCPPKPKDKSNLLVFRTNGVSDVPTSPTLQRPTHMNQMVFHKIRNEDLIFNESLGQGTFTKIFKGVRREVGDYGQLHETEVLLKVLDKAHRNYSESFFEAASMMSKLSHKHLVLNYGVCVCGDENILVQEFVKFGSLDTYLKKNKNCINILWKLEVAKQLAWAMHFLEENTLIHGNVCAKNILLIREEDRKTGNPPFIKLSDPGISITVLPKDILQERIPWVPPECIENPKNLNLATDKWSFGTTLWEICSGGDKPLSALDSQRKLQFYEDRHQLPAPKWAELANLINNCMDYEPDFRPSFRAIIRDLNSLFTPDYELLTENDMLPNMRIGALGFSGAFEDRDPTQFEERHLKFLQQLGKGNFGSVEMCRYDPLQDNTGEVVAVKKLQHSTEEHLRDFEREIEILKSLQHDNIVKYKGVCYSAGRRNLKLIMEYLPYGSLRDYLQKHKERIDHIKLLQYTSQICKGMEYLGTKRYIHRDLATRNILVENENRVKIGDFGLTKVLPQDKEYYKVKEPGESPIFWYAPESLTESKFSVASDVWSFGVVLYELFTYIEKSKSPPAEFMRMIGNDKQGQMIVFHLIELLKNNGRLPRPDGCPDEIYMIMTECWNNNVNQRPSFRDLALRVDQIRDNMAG
Sequence of DYRK3 (human) (O43781 whole entry, looked up): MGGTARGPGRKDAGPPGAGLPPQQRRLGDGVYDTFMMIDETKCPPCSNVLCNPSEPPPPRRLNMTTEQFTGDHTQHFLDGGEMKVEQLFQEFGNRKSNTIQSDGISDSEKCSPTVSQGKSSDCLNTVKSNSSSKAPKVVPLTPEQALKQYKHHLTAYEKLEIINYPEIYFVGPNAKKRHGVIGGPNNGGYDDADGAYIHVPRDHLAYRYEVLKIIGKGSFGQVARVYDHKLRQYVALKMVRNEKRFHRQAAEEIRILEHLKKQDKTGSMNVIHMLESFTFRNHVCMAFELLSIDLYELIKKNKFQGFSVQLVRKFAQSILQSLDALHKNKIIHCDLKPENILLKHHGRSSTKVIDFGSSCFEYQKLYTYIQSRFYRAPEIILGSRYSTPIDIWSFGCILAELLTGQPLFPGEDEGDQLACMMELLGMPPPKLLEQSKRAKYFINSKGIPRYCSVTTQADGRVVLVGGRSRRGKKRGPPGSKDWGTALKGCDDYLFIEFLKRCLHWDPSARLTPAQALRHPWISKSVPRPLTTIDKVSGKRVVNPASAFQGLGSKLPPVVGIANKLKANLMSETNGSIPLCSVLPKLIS
Sequence of MKNK1 (human) (Q9BUB5 whole entry, looked up): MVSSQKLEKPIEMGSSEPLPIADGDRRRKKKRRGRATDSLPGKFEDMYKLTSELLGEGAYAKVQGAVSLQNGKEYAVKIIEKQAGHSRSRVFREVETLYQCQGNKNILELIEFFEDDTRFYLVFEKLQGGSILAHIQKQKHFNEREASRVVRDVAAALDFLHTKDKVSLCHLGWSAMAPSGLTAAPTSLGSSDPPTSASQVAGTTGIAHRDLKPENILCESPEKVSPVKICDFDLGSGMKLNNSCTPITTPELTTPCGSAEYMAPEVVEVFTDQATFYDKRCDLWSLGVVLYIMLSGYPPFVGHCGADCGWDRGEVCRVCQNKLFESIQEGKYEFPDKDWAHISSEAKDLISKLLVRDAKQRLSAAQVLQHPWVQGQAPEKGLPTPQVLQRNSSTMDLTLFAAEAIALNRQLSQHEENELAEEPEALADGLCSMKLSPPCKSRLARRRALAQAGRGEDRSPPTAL

C=C1C(=O)OC2C1CC/C(C)=C/CCC1(C)OC21 (stereo not drawn) showed a residual activity (CaMK1 (human); compound 1.0 µM) of 116%, a residual activity (CaMK1 (human); compound 5.0 µM) of 104% and a residual activity (BRSK2 (human); compound 1.0 µM) of 109%. It also gave a residual activity (DYRK1A (human); compound 1.0 µM) of 120%, a residual activity (DYRK1A (human); compound 5.0 µM) of 101% and a residual activity (STK3 (human); compound 1.0 µM) of 118%. The residual activity (STK3 (human); compound 5.0 µM) was 125%, the residual activity (MAPK11 (human); compound 1.0 µM) was 111% and the residual activity (MAPK11 (human); compound 5.0 µM) was 121%. The residual activity (MKNK1 (human); compound 1.0 µM) was 116%, the residual activity (MKNK1 (human); compound 5.0 µM) was 94% and the residual activity (LCK (mouse); compound 1.0 µM) was 112%. It also gave a residual activity (TAOK1 (human); compound 5.0 µM) of 103%, a residual activity (DAPK1 (human); compound 1.0 µM) of 102% and a residual activity (DAPK1 (human); compound 5.0 µM) of 107%. It also gave a residual activity (PHKG1 (human); compound 1.0 µM) of 116%, a residual activity (PHKG1 (human); compound 5.0 µM) of 108% and a residual activity (MAPK10 (human); compound 1.0 µM) of 115%. It also gave a residual activity (MAPK10 (human); compound 5.0 µM) of 134%, a residual activity (YES1 (human); compound 5.0 µM) of 109% and a residual activity (MAPK13 (human); compound 1.0 µM) of 115%. The residual activity (MAPK13 (human); compound 5.0 µM) was 113%, the residual activity (EPHB2 (human); compound 1.0 µM) was 72% and the residual activity (EPHB2 (human); compound 5.0 µM) was 78%. It also gave a residual activity (MARK3 (human); compound 1.0 µM) of 123%, a residual activity (MARK3 (human); compound 5.0 µM) of 98% and a residual activity (TBK1 (human); compound 1.0 µM) of 104%. For the same compound, the residual activity (GCK (human); compound 1.0 µM) was 116%, the residual activity (GCK (human); compound 5.0 µM) was 98% and the residual activity (AURKB (human); compound 1.0 µM) was 106%. It also gave a residual activity (AURKB (human); compound 5.0 µM) of 99%, a residual activity (ROCK2 (rat); compound 1.0 µM) of 123% and a residual activity (ROCK2 (rat); compound 5.0 µM) of 113%. For the same compound, the residual activity (IGF1R (human); compound 1.0 µM) was 120%, the residual activity (IGF1R (human); compound 5.0 µM) was 109% and the residual activity (SRPK1 (human); compound 1.0 µM) was 111%. It also gave a residual activity (SRPK1 (human); compound 5.0 µM) of 106%, a residual activity (PIM3 (human); compound 1.0 µM) of 119% and a residual activity (PIM3 (human); compound 5.0 µM) of 121%. The residual activity (HIPK2 (human); compound 1.0 µM) was 124%, the residual activity (HIPK2 (human); compound 5.0 µM) was 113% and the residual activity (FGFR1 (human); compound 1.0 µM) was 106%. For the same compound, the residual activity (FGFR1 (human); compound 5.0 µM) was 99%, the residual activity (MAPK8 (human); compound 1.0 µM) was 104% and the residual activity (MAPK8 (human); compound 5.0 µM) was 102%. For the same compound, the residual activity (CLK2 (human); compound 1.0 µM) was 90%, the residual activity (CLK2 (human); compound 5.0 µM) was 93% and the residual activity (MINK1 (human); compound 1.0 µM) was 108%. The residual activity (MINK1 (human); compound 5.0 µM) was 122%, the residual activity ([1]; compound 1.0 µM) was 102% and the residual activity ([1]; compound 5.0 µM) was 103%. The residual activity (CSNK2A1 (human); compound 1.0 µM) was 117%, the residual activity (CSNK2A1 (human); compound 5.0 µM) was 106% and the residual activity ([2]; compound 5.0 µM) was 115%. For the same compound, the residual activity (CHEK1 (human); compound 1.0 µM) was 123%, the residual activity (CHEK1 (human); compound 5.0 µM) was 98% and the residual activity (JAK2 JH1 JH2 (human); compound 1.0 µM) was 116%. The residual activity (JAK2 JH1 JH2 (human); compound 5.0 µM) was 98%, the residual activity (HIPK1 (human); compound 1.0 µM) was 114% and the residual activity (HIPK1 (human); compound 5.0 µM) was 106%. The residual activity (DYRK3 (human); compound 1.0 µM) was 124% and the residual activity (DYRK3 (human); compound 5.0 µM) was 106%.

With O=C(NOC[C@H](O)CO)c1ccc(F)c(F)c1Nc1ccc(I)cc1Cl the residual activity (CaMK1 (human); compound 1.0 µM) was 96%, the residual activity (CaMK1 (human); compound 10.0 µM) was 91% and the residual activity (BRSK2 (human); compound 1.0 µM) was 94%. It also gave a residual activity (BRSK2 (human); compound 10.0 µM) of 96%, a residual activity (DYRK1A (human); compound 1.0 µM) of 94% and a residual activity (DYRK1A (human); compound 10.0 µM) of 104%. It also gave a residual activity (STK3 (human); compound 1.0 µM) of 83%, a residual activity (STK3 (human); compound 10.0 µM) of 70% and a residual activity (MKNK1 (human); compound 1.0 µM) of 103%. It also gave a residual activity (MKNK1 (human); compound 10.0 µM) of 104%, a residual activity (LCK (mouse); compound 1.0 µM) of 92% and a residual activity (LCK (mouse); compound 10.0 µM) of 109%. For the same compound, the residual activity (TAOK1 (human); compound 1.0 µM) was 101%, the residual activity (TAOK1 (human); compound 10.0 µM) was 109% and the residual activity (DAPK1 (human); compound 1.0 µM) was 96%. The residual activity (DAPK1 (human); compound 10.0 µM) was 90%, the residual activity (PHKG1 (human); compound 1.0 µM) was 95% and the residual activity (PHKG1 (human); compound 10.0 µM) was 90%. It also gave a residual activity (MAPK10 (human); compound 10.0 µM) of 85%, a residual activity (YES1 (human); compound 1.0 µM) of 82% and a residual activity (YES1 (human); compound 10.0 µM) of 86%. For the same compound, the residual activity (MAPK13 (human); compound 1.0 µM) was 85%, the residual activity (MAPK13 (human); compound 10.0 µM) was 97% and the residual activity (EPHB2 (human); compound 1.0 µM) was 64%. The residual activity (EPHB2 (human); compound 10.0 µM) was 74%, the residual activity (MARK3 (human); compound 1.0 µM) was 91% and the residual activity (MARK3 (human); compound 10.0 µM) was 74%. The residual activity (TBK1 (human); compound 1.0 µM) was 117%, the residual activity (TBK1 (human); compound 10.0 µM) was 101% and the residual activity (GCK (human); compound 1.0 µM) was 90%. For the same compound, the residual activity (AURKB (human); compound 1.0 µM) was 87%, the residual activity (AURKB (human); compound 10.0 µM) was 82% and the residual activity (ROCK2 (rat); compound 1.0 µM) was 84%. It also gave a residual activity (IGF1R (human); compound 1.0 µM) of 88%, a residual activity (IGF1R (human); compound 10.0 µM) of 113% and a residual activity (SRPK1 (human); compound 1.0 µM) of 80%. The residual activity (SRPK1 (human); compound 10.0 µM) was 95%, the residual activity (PIM3 (human); compound 1.0 µM) was 78% and the residual activity (PIM3 (human); compound 10.0 µM) was 72%. The residual activity (MAPKAPK5 (human); compound 1.0 µM) was 98%, the residual activity (MAPKAPK5 (human); compound 10.0 µM) was 99% and the residual activity (HIPK2 (human); compound 1.0 µM) was 93%. The residual activity (HIPK2 (human); compound 10.0 µM) was 104%, the residual activity (FGFR1 (human); compound 1.0 µM) was 140% and the residual activity (FGFR1 (human); compound 10.0 µM) was 83%. For the same compound, the residual activity (MAPK8 (human); compound 1.0 µM) was 91%, the residual activity (MAPK8 (human); compound 10.0 µM) was 117% and the residual activity (CLK2 (human); compound 1.0 µM) was 103%. It also gave a residual activity (CLK2 (human); compound 10.0 µM) of 85%, a residual activity (MINK1 (human); compound 1.0 µM) of 117% and a residual activity (MINK1 (human); compound 10.0 µM) of 144%. It also gave a residual activity ([1]; compound 10.0 µM) of 91%, a residual activity (CSNK2A1 (human); compound 1.0 µM) of 107% and a residual activity (CSNK2A1 (human); compound 10.0 µM) of 118%. The residual activity (CAMKK2 (human); compound 1.0 µM) was 92%, the residual activity (CAMKK2 (human); compound 10.0 µM) was 94% and the residual activity ([2]; compound 1.0 µM) was 69%. It also gave a residual activity ([2]; compound 10.0 µM) of 74%, a residual activity (CHEK1 (human); compound 1.0 µM) of 130% and a residual activity (CHEK1 (human); compound 10.0 µM) of 122%. The residual activity (JAK2 JH1 JH2 (human); compound 1.0 µM) was 8%, the residual activity (JAK2 JH1 JH2 (human); compound 10.0 µM) was 9% and the residual activity (HIPK1 (human); compound 1.0 µM) was 84%. The residual activity (HIPK1 (human); compound 10.0 µM) was 92%, the residual activity (DYRK3 (human); compound 1.0 µM) was 85% and the residual activity (DYRK3 (human); compound 10.0 µM) was 85%.

— the kinase profiling compilation of Christmann-Franck et al. (2016)
